The target of the assay is T1, human recombinant HDAC6 (Homo sapiens, UniProt Q9UBN7).
T1 construct: purchased Calbiochem 382180
T1 sequence (Q9UBN7 1-1215): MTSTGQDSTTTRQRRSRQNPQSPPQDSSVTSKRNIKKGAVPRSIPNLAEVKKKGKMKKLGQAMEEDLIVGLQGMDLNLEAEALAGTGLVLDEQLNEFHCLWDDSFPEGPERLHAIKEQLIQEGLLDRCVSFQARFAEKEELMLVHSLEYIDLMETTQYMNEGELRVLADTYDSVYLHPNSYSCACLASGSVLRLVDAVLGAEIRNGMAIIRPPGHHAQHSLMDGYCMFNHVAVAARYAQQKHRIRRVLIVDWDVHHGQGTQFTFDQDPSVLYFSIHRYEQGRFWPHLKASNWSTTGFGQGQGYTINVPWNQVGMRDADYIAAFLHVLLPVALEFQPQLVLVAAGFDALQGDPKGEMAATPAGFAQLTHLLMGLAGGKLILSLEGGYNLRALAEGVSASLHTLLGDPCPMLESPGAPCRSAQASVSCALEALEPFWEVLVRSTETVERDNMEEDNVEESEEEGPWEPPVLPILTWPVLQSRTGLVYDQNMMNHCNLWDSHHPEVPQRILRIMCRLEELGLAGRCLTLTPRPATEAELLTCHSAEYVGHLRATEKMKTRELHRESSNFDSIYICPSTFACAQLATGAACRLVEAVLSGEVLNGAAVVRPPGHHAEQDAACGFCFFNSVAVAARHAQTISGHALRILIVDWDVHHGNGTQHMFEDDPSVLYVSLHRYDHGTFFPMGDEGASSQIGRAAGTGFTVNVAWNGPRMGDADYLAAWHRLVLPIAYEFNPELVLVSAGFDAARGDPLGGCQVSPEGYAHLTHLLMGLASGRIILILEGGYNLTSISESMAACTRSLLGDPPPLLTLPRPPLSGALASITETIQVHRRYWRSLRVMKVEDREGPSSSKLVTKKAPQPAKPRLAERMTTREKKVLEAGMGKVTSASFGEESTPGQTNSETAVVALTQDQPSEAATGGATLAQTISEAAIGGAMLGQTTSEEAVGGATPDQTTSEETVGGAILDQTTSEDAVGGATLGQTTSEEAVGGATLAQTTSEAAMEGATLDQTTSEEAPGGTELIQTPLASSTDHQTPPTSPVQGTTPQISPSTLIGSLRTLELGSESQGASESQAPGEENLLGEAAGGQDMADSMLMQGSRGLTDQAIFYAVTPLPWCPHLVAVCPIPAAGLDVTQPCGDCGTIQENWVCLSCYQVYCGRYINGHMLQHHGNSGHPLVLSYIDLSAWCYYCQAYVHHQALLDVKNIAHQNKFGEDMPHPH
The experiment in a line: HDAC6 enzyme activity inhibition assay (HDAC Fluorimetric Drug Discovery Kit). The assay is classed as biochemical. As to conditions: for HDAC6 selectivity (fold): HDAC1 vs HDAC6; for IC50: same protocol as the HDAC1 enzyme activity test. Here is the method:
In order to examine the HDAC6 selectivity of the compounds of formula I of the present invention by HDAC1 and HDAC6 enzymatic activity inhibition assays, an experiment was performed using a conventional substance as a control.
HDAC enzyme activity was measured using a HDAC Fluorimetric Drug Discovery Kit (BML-AK511, 516, Enzo Life Science). For the HDAC1 enzyme activity test, human recombinant HDAC1 (BML-SE456) was used as an enzyme source, and Fluor de Lys®-“SIRT1 (BNL-KI177) was used as a substrate. A 5-fold dilution of the compound was seeded into a 96-well plate, and then 0.3 μg of the enzyme and 10 μM of the substrate were added to each well of the plate and allowed to react at 30° C. for 60 minutes. Then, Fluor de Lys®-Developer II (BML-KI176) was added thereto and allowed to react for 30 minutes, after which the fluorescence value (Ex 360, Em 460) was measured using a multi-plate reader (Flexstation 3, Molecular Device). The HDAC6 enzyme was tested using human recombinant HDAC6 (382180) (Calbiochem) according to the same protocol as the HDAC1 enzyme activity test method. Based on the resulting values, each IC50 value was calculated using GraphPad Prism4.0 program.

In general, IC50 refers to the concentration that inhibits the measured activity by half.

Each structure is given as a SMILES string.

For `O=S(=O)(CCCN1CCC(F)C1)N(Cc1ccc(-c2nnc(C(F)F)o2)cc1)c1ccccc1` (stereo in doubt) [Compound 11724, (R)—N-(4-(5-(difluoromethyl)-1,3,4-oxadiazol-2-yl)benzyl)-3-(3-fluoropyrrolidin-1-yl)-N-phenylpropane-1-sulfonamide], the “HDAC6 selectivity (fold)” value is given as 741 fold and the IC50 was found to be 135 nM.

Regarding `CS(=O)(=O)N(Cc1ccc(-c2nnc(C(F)F)o2)cc1F)c1ccc2ncoc2c1` [Compound 11774, N-(benzo[d]oxazol-6-yl)-N-(4-(5-(difluoromethyl)-1,3,4-oxadiazol-2-yl)-2-fluorobenzyl)methanesulfonamide], the “HDAC6 selectivity (fold)” value worked out at 1503 fold and the IC50 came out at 66.5 nM.

Turning to `CS(=O)(=O)N(Cc1ccc(-c2nnc(C(F)F)o2)cn1)c1cccc(C(F)(F)F)c1` [Compound 11324, N-((5-(5-(difluoromethyl)-1,3,4-oxadiazol-2-yl)pyridin-2-yl)methyl)-N-(3-(trifluoromethyl)phenyl)methanesulfonamide], the “HDAC6 selectivity (fold)” value is reported as 4762 fold and the IC50 was 21 nM.

Take `O=S(=O)(CCN1CCCC(CO)C1)N(Cc1ccc(-c2nnc(C(F)F)o2)cc1)c1ccccc1` (stereo not shown) [Compound 11811, N-(4-(5-(difluoromethyl)-1,3,4-oxadiazol-2-yl)benzyl)-2-(3-(hydroxymethyl)piperidin-1-yl)-N-phenylethane-1-sulfonamide]: the “HDAC6 selectivity (fold)” value was found to be 2358 fold and the IC50 came to 42.4 nM.

Take `COc1ccc(N(Cc2ccc(-c3nnc(C(F)F)o3)cc2F)S(C)(=O)=O)cc1` [Compound 11193, N-(4-(5-(difluoromethyl)-1,3,4-oxadiazol-2-yl)-2-fluorobenzyl)-N-(4-methoxyphenyl)methanesulfonamide]: the “HDAC6 selectivity (fold)” value is 3704 fold and the IC50 was found to be 27 nM.

Turning to `CC(=O)N1Cc2ccc(N(Cc3ccc(-c4nnc(C(F)F)o4)cn3)S(C)(=O)=O)cc2C1` [Compound 11736, N-(2-acetylisoindolin-5-yl)-N-((5-(5-(difluoromethyl)-1,3,4-oxadiazol-2-yl)pyridin-2-yl)methyl)methanesulfonamide], the “HDAC6 selectivity (fold)” value is 216 fold and the IC50 turned out to be 461 nM.

In the case of `O=S(=O)(CCN1CC[C@H](CO)C1)N(Cc1ccc(-c2nnc(C(F)F)o2)cc1)c1ccccc1` [Compound 11804, (S)—N-(4-(5-(difluoromethyl)-1,3,4-oxadiazol-2-yl)benzyl)-2-(3-(hydroxymethyl)pyrrolidin-1-yl)-N-phenylethane-1-sulfonamide], the “HDAC6 selectivity (fold)” value turned out to be 3115 fold and the IC50 was 32.1 nM.

Take `O=S(=O)(CCN1CCN(c2ccccn2)CC1)N(Cc1ccc(-c2nnc(C(F)F)o2)cc1)c1ccccc1` [Compound 11767, N-(4-(5-(difluoromethyl)-1,3,4-oxadiazol-2-yl)benzyl)-N-phenyl-2-(4-(pyridin-2-yl)piperazin-1-yl)ethane-1-sulfonamide]: the “HDAC6 selectivity (fold)” value was 844 fold and the IC50 worked out at 118 nM.

Turning to `CS(=O)(=O)N(Cc1ccc(-c2nnc(C(F)F)o2)cn1)c1cccc(F)c1` [Compound 11217, N-((5-(5-(difluoromethyl)-1,3,4-oxadiazol-2-yl)pyridin-2-yl)methyl)-N-(3-fluorophenyl)methanesulfonamide], the “HDAC6 selectivity (fold)” value stood at 7692 fold and the IC50 amounted to 13 nM.

Take `Cn1c(=O)n(C)c2cc(N(Cc3ccc(-c4nnc(C(F)F)o4)cc3)S(C)(=O)=O)ccc21` [Compound 11745, N-(4-(5-(difluoromethyl)-1,3,4-oxadiazol-2-yl)benzyl)-N-(1,3-dimethyl-2-oxo-2,3-dihydro-1H-benzo[d]imidazol-5-yl) methanesulfonamide]: the “HDAC6 selectivity (fold)” value amounted to 432 fold and the half-maximal inhibitory concentration (IC50) was 231 nM.

In the case of `O=S1(=O)CCC(S(=O)(=O)N(Cc2ccc(-c3nnc(C(F)(F)F)o3)cc2F)c2cccc(F)c2)CC1` [Compound 11255, N-(2-fluoro-4-(5-(trifluoromethyl)-1,3,4-oxadiazol-2-yl)benzyl)-N-(3-fluorophenyl)tetrahydro-2H-thiopyran-4-sulfonamide 1,1-dioxide], the “HDAC6 selectivity (fold)” value is reported as 2128 fold and the IC50 is 47 nM.

On to `CS(=O)(=O)N(Cc1ccc(-c2nnc(C(F)(F)F)o2)cc1)Cc1ccccn1` [Compound 11045, N-(pyridin-2-ylmethyl)-N-(4-(5-(trifluoromethyl)-1,3,4-oxadiazol-2-yl)benzyl)methanesulfonamide], for which the “HDAC6 selectivity (fold)” value was 633 fold and the IC50 turned out to be 158 nM.

In the case of `Cc1cccc(N(Cc2ccc(-c3nnc(C(F)F)o3)cc2)S(=O)(=O)C2CCN(C3COC3)CC2)c1` [Compound 11682, N-(4-(5-(difluoromethyl)-1,3,4-oxadiazol-2-yl)benzyl)-1-(oxetan-3-yl)-N-(m-tolyl)piperidine-4-sulfonamide], the “HDAC6 selectivity (fold)” value was found to be 4545 fold and the IC50 turned out to be 22 nM.

As for `CS(=O)(=O)N(Cc1ccc(-c2nnc(C(F)F)o2)cc1)c1ccc2c(c1)CN(C1COC1)C2` [Compound 11731, N-(4-(5-(difluoromethyl)-1,3,4-oxadiazol-2-yl)benzyl)-N-(2-(oxetan-3-yl)isoindolin-5-yl)methanesulfonamide], the “HDAC6 selectivity (fold)” value is 57 fold and the IC50 is 1750 nM.

As for `COc1cccc(N(Cc2ccc(-c3nnc(C(F)F)o3)cc2F)S(C)(=O)=O)c1` [Compound 11180, N-(4-(5-(difluoromethyl)-1,3,4-oxadiazol-2-yl)-2-fluorobenzyl)-N-(3-methoxyphenyl)methanesulfonamide], the “HDAC6 selectivity (fold)” value was found to be 1613 fold and the half-inhibitory concentration (IC50) is 62 nM.

On to `O=S(=O)(C1CCN(C2CC(F)C2)CC1)N(Cc1ccc(-c2nnc(C(F)F)o2)cc1)c1cccc(Cl)c1` (stereo not shown) [Compound 11840, N-(3-chlorophenyl)-N-(4-(5-(difluoromethyl)-1,3,4-oxadiazol-2-yl)benzyl)-1-(3-fluorocyclobutyl)piperidine-4-sulfonamide], for which the “HDAC6 selectivity (fold)” value worked out at 520 fold and the IC50 was determined as 192 nM.

`CS(=O)(=O)N(Cc1ncc(-c2nnc(C(F)F)o2)cn1)c1ccccc1` [Compound 11564, N-((5-(5-(difluoromethyl)-1,3,4-oxadiazol-2-yl)pyrimidin-2-yl)methyl)-N-phenylmethanesulfonamide]: the “HDAC6 selectivity (fold)” value is 4762 fold and the half-maximal inhibitory concentration (IC50) turned out to be 21 nM.

With `O=S(=O)(CCN1CC[C@H](O)C1)N(Cc1ccc(-c2nnc(C(F)F)o2)cc1)c1ccccc1` [Compound 11800, (S)—N-(4-(5-(difluoromethyl)-1,3,4-oxadiazol-2-yl)benzyl)-2-(3-hydroxypyrrolidin-1-yl)-N-phenylethane-1-sulfonamide], the “HDAC6 selectivity (fold)” value is 2252 fold and the IC50 is 44.4 nM.

`CS(=O)(=O)N(Cc1ccc(-c2nnc(C(F)F)o2)cn1)c1cccc(Cl)c1` [Compound 11352, N-(3-chlorophenyl)-N-((5-(5-(difluoromethyl)-1,3,4-oxadiazol-2-yl)pyridin-2-yl)methyl)methanesulfonamide]: the “HDAC6 selectivity (fold)” value was found to be 12500 fold and the IC50 came out at 8 nM.

Consider `Cc1cccc(N(Cc2ccc(-c3nnc(C(F)F)o3)cc2)S(=O)(=O)C2CCN(C3CC4CCC3C4)CC2)c1` (stereo not shown) [Compound 11693, 1-(bicyclo[2.2.1]heptan-2-yl)-N-(4-(5-(difluoromethyl)-1,3,4-oxadiazol-2-yl)benzyl)-N-(m-tolyl)piperidine-4-sulfonamide], for which the “HDAC6 selectivity (fold)” value is 198 fold and the IC50 is 504 nM.
